{
  "source": "patent US6596705B1",
  "about": "“Inhibition of L-selectin and P-selection mediated binding using heparin” (The Regents of the University of California, priority 1998, dated 2003)",
  "key": {"P-selectin": {"target": "P-selectin", "sequence (P16109 42-195 limits assumed)": "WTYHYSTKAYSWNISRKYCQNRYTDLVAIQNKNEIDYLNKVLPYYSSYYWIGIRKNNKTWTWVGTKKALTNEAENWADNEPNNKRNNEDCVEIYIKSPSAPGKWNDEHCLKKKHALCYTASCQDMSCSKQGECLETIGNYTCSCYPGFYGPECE", "assay": "ELISA inhibition of P-selectin binding to immobilized SLe^x", "details": "average of 2-3 experiments, concentration from assumed average molecular weight", "protocol": "(§1) ELISA inhibition assays were performed as previously reported (O'Connell et al., Proc. Natl. Acad. Sci. USA 93:5883-5887 (1996); Koenig et al., supra, 1997). Sterile 96 well ELISA plates were coated with 200 ng of polyacrylamide-SLe^x (Glycotech; Rockville Md.) by overnight incubation at […] in 100 μl of 50 mM sodium carbonate/bicarbonate buffer, pH 9.5. Plates were blocked for at least 2 hours at 4° C. with 200 μl of 20 mM Hepes, 125 mM NaCl, 2 mM CaCl2, 2 mM MgCl2, 1% protease-free BSA, pH 7.45 (osmolarity 290 milliosmoles) per well. During the blocking step, the selectin-Rg chimeras were separately preincubated at 4° C. with a peroxidase-conjugated goat anti-human IgG secondary antibody (Jackson Immunoresearch Laboratories, Inc.; West Grove Pa.) in assay buffer for approximately 1 hour.\n(§2) Final selectin-Rg concentration was 20 nM, and the secondary antibody dilution was 1:1000. […]\n(§3) These tubes were preincubated at 4° C. for 30 minutes, then added to ELISA plates, in duplicates, to a well volume of 100 μl. […] The absorbance at 492 nm was determined using SOFTMAX software and a microplate reader (Molecular Devices Inc., Menlo Park Calif.). Prior to curve fitting, the absorbance values were converted into percentages for comparative purposes using the formula: ({(average of duplicates)−(negative control)}/{(positive control)−(negative control)})×100) using the SOFTMAX software."}, "L-selectin": {"target": "L-selectin", "sequence (P14151 39-318 limits assumed)": "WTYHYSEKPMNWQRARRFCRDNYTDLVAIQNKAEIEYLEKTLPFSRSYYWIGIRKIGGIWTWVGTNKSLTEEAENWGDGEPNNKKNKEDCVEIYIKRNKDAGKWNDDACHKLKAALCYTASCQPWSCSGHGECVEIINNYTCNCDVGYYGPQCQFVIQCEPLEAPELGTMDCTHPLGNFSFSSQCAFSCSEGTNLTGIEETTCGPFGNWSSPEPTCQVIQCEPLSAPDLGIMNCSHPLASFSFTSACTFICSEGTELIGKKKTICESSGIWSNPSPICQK", "assay": "ELISA inhibition of L-selectin binding to immobilized SLe^x", "details": "average of 2-3 experiments, concentration from assumed average molecular weight", "protocol": "as §1, §2, §3"}},
  "data": [
    {"substance": "Siao2-3 Galβ1-4 (Fucal-3) GlcNAc [Sialyl Lewis^x]", "values": [
      {"measurement": "IC50", "setting": "P-selectin", "result": 520, "unit": "µM"},
      {"measurement": "IC50", "setting": "L-selectin", "result": 600, "unit": "µM"}
    ]}
  ]
}
